Consider five molecules from patent US20230310377A1, “METHODS OF TREATING LYSOSOMAL STORAGE DISEASES AND METHODS RELATED THERETO” (RECURSION PHARMACEUTICALS, INC., priority 2020, published 2023).

Common to all, as to type: cell-based
Assay [1] has as its system Sandhoff (HEXB) disease and Tay-Sachs (HEXA) disease patient fibroblasts. The assay can be described thus: GM2 ganglioside accumulation (immunofluorescence) in Sandhoff and Tay-Sachs patient fibroblasts. As to conditions: Homo sapiens, Fibroblast. On the procedure: (§1) Healthy, Sandhoff (HEXB) disease, and Tay-Sachs (HEXA) disease patient fibroblasts were plated and treated with ruboxistaurin mesylate twice over 17 days. At day 0 cells were seeded. On day 5 the media was changed and initial dose of the compound was delivered. On day 10 the media was changed again and the second dose of the compound was delivered. On day 17 the cells were fixed, immunoflourescence-labeled, and imaged for GM2 (see FIG. 1). […] FIGS. 2A-1 and 3A depict the dose response for two separate experiments. FIGS. 2B-1 and 3B depict mean fluorescence or mean aggregate count for each experiment±SEM of technical replicates, combining 3-5 patient lines for each group. n=12-40 images from two well replicates imaged at 4-sites per well for each line at each dose. Data in each panel represents n=1 experiment performed. FIGS. 2C and 3C depict nuclei per image from the same image sets.
(§2) The same experiment was performed for each of sotrastaurin, enzastaurin, LY2090314, AZD1080, and AZD2858. FIG. 2A-2 depicts the dose response for sotrastaurin. FIG. 2A-3 depicts the dose response for enzastaurin.
EC50 calculations were based on GM2 aggregate counts (not mean fluorescence).
The leftmost concentration in all graphs is DMSO control.

Assay [2] has the same test system. The assay is described as follows: Mean cytoplasmic autofluorescence in patient fibroblasts. The conditions noted are these: Homo sapiens, Fibroblast, experimentally determined, read-out: autofluorescence ED50. Here is the method: as §1
FIGS. 2D-1 and 2D-2 depict mean cytoplasmic autofluorescence for ruboxistaurin and sotrastaurin, respectively.

In assay [3] the test system is Tay-Sachs (HEXA) disease patient fibroblasts. The assay can be described thus: GM2 ganglioside accumulation in Tay-Sachs (HEXA) patient fibroblasts. The conditions noted are these: Homo sapiens, Fibroblast, read-out: GM2 ganglioside ED50 for HEXA. On the procedure: as §1, §2
Assay [4] deals with Sandhoff (HEXB) disease patient fibroblasts. The assay is described as follows: GM2 ganglioside accumulation in Sandhoff (HEXB) patient fibroblasts. The conditions noted are these: Homo sapiens, Fibroblast, read-out: GM2 ganglioside ED50 for HEXB. Here is the method:
as §1, §2

Setting [5] is: GM2 aggregate counts (not mean fluorescence), Expmts 1936 and 1925, read-out: ED50 based on GM2 aggregate counts.
Setting [6] is: experimentally determined, patient fibroblasts, read-out: GM2 ganglioside ED50.

Turning to `O=C1NC(=O)C(c2cnc3ccccn23)=C1c1cn2c3c(cc(F)cc13)CN(C(=O)N1CCCCC1)CC2` [LY2090314], the EC50 in assay [1] (setting [5]) was determined as 8.76 nM.
As for `CN(C)C[C@@H]1CCn2cc(c3ccccc32)C2=C(C(=O)NC2=O)c2cn(c3ccccc23)CCO1` [Ruboxistaurin, (18S)-18-[(dimethylamino)methyl]-17-oxa-4,14,21-triazahexacyclo[19.6.1.17,14.02,6.08,13.022,27]nonacosa-1(28),2(6),7(29),8,10,12,22,24,26-nonaene-3,5-dione], the values for the EC50 in assay [1] (setting [6]) and in assay [2] were roughly 300 nM and roughly 250 nM, respectively.
In the case of `N#Cc1ccc2[nH]c(O)c(-c3ccc(CN4CCOCC4)cn3)c2c1` [AZD1080], the EC50 in assay [1] (setting [5]) amounted to 1590 nM.
As to `Cn1cc(C2=C(c3cn(C4CCN(Cc5ccccn5)CC4)c4ccccc34)C(=O)NC2=O)c2ccccc21` [Enzastaurin], the EC50 in assay [3] is roughly 265 nM; in assay [4] it was roughly 550 nM.
Turning to `CN1CCN(c2nc(C3=C(c4c[nH]c5ccccc45)C(=O)NC3=O)c3ccccc3n2)CC1` [Sotrastaurin], the EC50 in assay [1] (setting [6]) was roughly 90 nM.
